Source: patent publication US20100143381A1, “LYSOPHOSPHATIDIC ACID RECEPTOR TARGETING FOR LUNG DISEASE” (priority 2007, published 2010)
“Also recorded” adds a separate entry of the source.

Key:
[1] = test system: sphingosine 1-phosphate receptors; conditions: literature (Ohta et al. 2003); cited from earlier work
[2] = test system: primary mouse lung fibroblasts; assay: PDGF-induced fibroblast chemotaxis (specificity control); assay type: cell-based
Protocol: (§1) Lungs from unchallenged C57BL/6, LPA1^−/− or littermate wild type mice were digested for 45 minutes at 37° C. in DMEM with 0.14 U/ml Liberase Blenzyme 3 (Roche), and 60 μg/ml DNAse 1 (Sigma), passed through a 70 μm filter, centrifuged at 540×g at 4° C. and plated in tissue culture flasks in DMEM with 15% (vol/vol) fetal bovine serum (FBS, Sigma). Cells were passaged when subconfluent following harvest with trypsin-EDTA (Cellgro®). To ensure that cultures contained almost purely fibroblasts, cells were used for experiments at passage 3 or higher.
(§2) After being serum-starved in DMEM without FBS overnight, subconfluent primary lung fibroblasts were harvested with non-enzymatic Cell Dissociation Solution (Sigma) to avoid possible proteolysis of surface chemoattractant receptors by trypsin. Harvested cells, at 5.0×10^5 cells/ml in 50 μl of DMEM, were placed in the top of a 48-well modified Boyden microchemotaxis chamber (NeuroProbe). Duplicate 30 μl aliquots of either: i) 18:1 LPA (Avanti Polar Lipids) or PDGF-BB (R&D Systems) in DMEM with 0.1% fatty acid-free bovine serum albumin (Sigma); or ii) BAL, or BAL fractions, diluted 1:4 in DMEM, were placed in the bottom wells of the chamber and separated from the cells by a 8-μm-pore, polyvinylpyrrolidone-free polycarbonate filter (Osmonics) that had been coated with fibronectin (Sigma). The apparatus was incubated at 37° C. and 5% CO2 for 3 hours, and cells migrating across the filter and adhering to the bottom side of the filter were stained with a commercially modified Wright's stain (Hema 3 stain set, Fisher Diagnostics) and counted, after cells remaining on the top side of the filter had been scraped off. Data from these experiments is presented as chemotactic indices, i.e. the number of cells migrating in response to BAL divided by the number of cells migrating to media controls.

[3] = test system: primary mouse lung fibroblasts; assay: Fibroblast chemotaxis induced by BAL from mice on Day 5 post-bleomycin (modified Boyden chamber); assay type: cell-based
Protocol: Bronchoalveolar lavage (BAL) samples were obtained by lung lavage using two 0.5 ml aliquots of PBS. These samples were then provided for analysis of: i) chemoattractant activity, ii) LPA; iii) total protein; and iv) D-dimer concentrations. These BAL samples were centrifuged at 3000×g for 20 min at 4° C., and the supernatants transferred to siliconized low-binding eppendorf tubes (PGC Scientifics) for subsequent analysis.
as §1
as §2, with “Data from these experiments is presented as chemotactic indices, i.e. the number of cells migrating in response to BAL divided by the number of cells migrating to media controls.” left out

LPA1, LPA3, LPA2 = conditions: literature (Ohta et al. 2003; Heise et al. 2001); cited from earlier work
[4] = test system: human fetal lung fibroblasts (HFL1 cells); assay: Fibroblast chemotaxis induced by BAL samples from human IPF patients; assay type: cell-based; conditions: 1 μM Ki16425; FIG. 8d
Protocol: After being serum-starved in DMEM without FBS overnight, subconfluent primary lung fibroblasts were harvested with non-enzymatic Cell Dissociation Solution (Sigma) to avoid possible proteolysis of surface chemoattractant receptors by trypsin. Harvested cells, at 5.0×10^5 cells/ml in 50 μl of DMEM, were placed in the top of a 48-well modified Boyden microchemotaxis chamber (NeuroProbe). […] The apparatus was incubated at 37° C. and 5% CO2 for 3 hours, and cells migrating across the filter and adhering to the bottom side of the filter were stained with a commercially modified Wright's stain (Hema 3 stain set, Fisher Diagnostics) and counted, after cells remaining on the top side of the filter had been scraped off. […]
BAL samples were recovered from IPF patients and normal controls following instillation of sterile 0.9% saline by flexible fiberoptic bronchoscopy, performed both at the Instituto Nacional de Enfermedades Respiratorias and the Massachusetts General Hospital (MGH), as previously described. […] Cells growing at passage 3 or higher were analyzed as primary human BAL fibroblasts.

[5] = test system: LPA-activated chloride channel; conditions: elevated levels; human lung fibroblasts; literature (Yin et al. 2005); cited from earlier work
[6] = test system: primary mouse lung fibroblasts; assay: LPA-induced fibroblast chemotaxis; assay type: cell-based; conditions: for effect of albumin on LPA-induced fibroblast chemotaxis: 0.1% fatty acid-free BSA, C57Bl/6 lung fibroblasts, FIG. 9b
Protocol: as §1, §2

Cc1noc(-c2ccc(CSCCC(=O)O)cc2)c1NC(=O)OC(C)c1ccccc1Cl (stereo not drawn) [Ki16425]
effects on cellular responses mediated by sphingosine 1-phosphate receptors [1]: without appreciable effects | effect on PDGF-induced fibroblast chemotaxis ([2]; 1 μM Ki16425, 10^−8 or 10^−7 M PDGF, FIG. 5b): not affected; also recorded: similar; also recorded: did not affect | effect on fibroblast chemotaxis induced by D5 post-bleomycin BAL ([3]; 1 μM Ki16425, C57BL fibroblasts, FIG. 5b): significantly inhibited | receptor subtype rank order of inhibition of LPA-induced responses (LPA1, LPA3, LPA2): LPA1≧LPA3>>LPA2 | effect on chemotaxis of HFL1 cells to BAL samples from IPF patients [4]: reduced chemotaxis; also recorded: significantly inhibited

CCCCCCCC/C=C\CCCCCCCC(=O)N[C@@H](COP(=O)(O)O)Cc1ccc(OCc2ccccc2)cc1 [VPC12249]
effect on PDGF-induced fibroblast chemotaxis ([2]; 100 μM VPC12249, PDGF 10^−9 M, FIG. 10): did not affect; also recorded: similar; also recorded: not affected | effect on fibroblast chemotaxis induced by D5 post-bleomycin BAL ([3]; 100 μM VPC12249, C57BL/6 fibroblasts, FIG. 10): reduced chemotaxis; also recorded: significantly inhibited | receptor subtype rank order of inhibition of LPA-induced responses (LPA1, LPA3, LPA2): LPA1≧LPA3>>LPA2

dioctyl-glycerol pyrophosphate
effect on activation of LPA-activated chloride channel [5]: blocked

fatty acid-free BSA: fatty acid-free bovine serum albumin (Sigma)
effect of albumin on LPA-induced fibroblast chemotaxis [6]: potentiated | effect of albumin on LPA-induced fibroblast chemotaxis ([6]; listed as methanol extracted fatty acid-free albumin): significantly potentiated

lysophosphatidic acid [LPA]
fibroblast chemotactic activity of LPA ([6]; LPA bound to albumin, FIG. 1h): chemotactic; also recorded: potent fibroblast chemoattractant

pertussis toxin [PTX]
effect of PTX pretreatment on PDGF-induced fibroblast chemotaxis ([2]; PTX-pretreatment of fibroblasts, FIG. 1b, 1i): not inhibited | effect of PTX pretreatment on LPA-induced fibroblast chemotaxis ([6]; PTX-pretreatment, LPA 10^−9-10^−7 M, FIG. 1i): inhibited chemotaxis; also recorded: reduced | effect of PTX pretreatment on BAL-induced fibroblast chemotaxis ([3]; PTX-pretreatment of fibroblasts, D5 BAL, FIG. 1b): inhibited chemotaxis; also recorded: completely inhibited
